# Experimental data as given in a melting point compilation (Tetko et al.; mined from patent text by program, amines drawn as free bases though some values may be those of a salt).
# Residues, ends and D or L forms follow the SMILES beside them. *: point of attachment. Cbz = O=C(OCc1ccccc1)*; Boc = CC(C)(C)OC(=O)*; OBn = c1ccc(CO*)cc1
row,Compound,melting point
1,O=C(O)C1C2CCC(C2)C1NS(=O)(=O)c1ccccc1 (configuration not stated),157 to 159 °C
2,O=C(O)c1cn(-c2ccc(F)cc2F)c2cc(Cl)c(F)cc2c1=O,90 to 92 °C
3,CC(C)[Si](Oc1cc(C=O)c2c(c1)C1(C)CCN(C)C1N2C)(C(C)C)C(C)C (configuration not stated),42 to 45 °C
4,Cc1ccccc1S(=O)(=O)Nc1onc(C)c1Br,93 to 96 °C
5,C#Cc1cc2c(cc1Cl)C=C(C(=O)O)C(C(F)(F)F)O2 (configuration not stated),> 300 °C
6,CSCCC(NC(=O)OC(C)(C)C)C(=O)NC(C)C(=O)NC(C(=O)NC(CCCCNC(=O)OCc1ccccc1)C(=O)OCc1ccccc1)C(C)C (configuration not stated) (Boc-MAVK(Cbz)-OBn; configuration not given here),169 to 171 °C
7,Cc1cc(F)ccc1C(O)(Cc1nnnn1C)c1ccc(F)cc1C,186 to 188 °C
8,OCCc1ccc(CCO)cc1,83 to 84 °C
9,COC(=O)C=Cc1ccc(OC)c(OC)c1,72 to 74 °C
10,Cn1c2ccc(F)cc2c(=O)n2nc(C(N)=O)cc12,> 350 °C
11,O=C(Nc1c[nH]nc1C(=O)NCCC(F)(F)F)c1ccccn1,241 to 243 °C
12,O=C(CC(=O)C(F)F)c1ccc(N2CCOCC2)cc1,102 to 103 °C
13,CCN1C(=O)C2CCCN2Cc2ccccc21 (configuration not stated),138 to 140 °C
14,COC(=O)c1ccccc1OCC(O)CNC(C)C (configuration not stated),78 to 79 °C
15,OC1CCCC2C3CCCCCCC3C12 (configuration not stated),142 °C
16,CC(=O)OCC(=O)C1=CCC2C3CCC4=CC(=O)CCC4(C)C3CCC12C (configuration not stated),146 to 148 °C
17,CC(=O)NCC1CC(c2ccc(F)c(F)c2)=NO1 (configuration not stated),136 to 137 °C
18,CC(C)(C)c1cc2ccccc2[nH]1,71 to 72 °C
19,CC(=O)Nc1ccc2c(c1)CCN2NC(C)=O,217 to 218 °C
20,CCN(CC)CCCNc1ncc2cc(-c3c(Cl)cccc3Cl)c(N=CN(C)C)nc2n1,100 to 104 °C
21,CC(C)NCC(O)c1cnc(N)c(Cl)c1 (configuration not stated),146 °C
22,CCCCc1nc2c(c(=O)[nH]1)CN(C(=O)C(C)(C)C)CC2,167 to 172 °C
23,CN1CCN(C2CCN(c3ncc4ncnc(Nc5ccc(F)c(Cl)c5)c4n3)CC2)CC1,163 to 165 °C

row,Compound,melting point
1,CC(=O)[Si](C)(C(C)(C)C)C(C)(C)C,35 °C
2,O=C1c2c(Cl)cccc2-n2cnc(-c3nc(CN4CCCC4)cs3)c2[C@@H]2CCCN12,213 to 214 °C
3,Oc1ccc2nc(SCCC=C(F)F)oc2c1,73.6 to 75.4 °C
4,CSc1nnc(-c2cccs2)n1C,83 to 85 °C
5,Nc1ccn(-c2ccc(Br)cc2)n1,122 to 123 °C
6,C=CC(=O)[C@@H]1CCCC[C@H]1C(=O)O (relative stereo),101 to 102 °C
7,Cc1c(C)c2c(c(Br)c1N)C(c1ccc(C(C)C)cc1)CO2 (configuration not stated),191 to 193 °C
8,CCOC(=O)C1Cc2[nH]c3ccc(OC)cc3c2C1 (configuration not stated),82 to 83 °C
9,Cc1ccc(-c2c(O)nn(CCO[Si](C)(C)C(C)(C)C)c2N)cc1,194 to 195 °C
10,CCOC(=O)c1c(C(F)(F)F)nc(C(F)(F)F)c(C)c1OC(C)=O,49 to 51 °C
11,CNC(=O)ON(C(=O)NC)C(=O)C(C)(C)C,117 to 119 °C
12,O=C(CCCN1CCN(c2noc3cc(OC(=O)C45CC6CC(CC(C6)C4)C5)ccc23)CC1)c1ccc(F)cc1,157 to 158 °C
13,COc1cc(N)c(Cl)cc1C(=O)NCC1CCN(CCOCc2ccccc2)CC1,123 to 125 °C
14,N#CC1(C(C(=O)O)C(=O)O)CCCCC1,99.9 °C
15,CCCCCCCCCCOc1ccc(NC(=O)c2ccc(O)cc2)cc1OCCCCCCCCCC,137 °C
16,N#CC(CCC(=O)O)(CC(=O)O)c1ccc(Cl)c(Cl)c1 (configuration not stated),152 °C
17,CN1CCCCC1CNC(=O)Nc1cc(OCC(F)(F)F)ccc1OCC(F)(F)F (configuration not stated),123 to 126 °C
18,Cn1c(C(F)(F)F)cc(=O)n(-c2c(F)cc(Cl)c3c2OC(C)(C)C3=O)c1=O,160 to 162 °C
19,CCCc1[nH]c2cc(C(N)=O)ccc2c1C(=O)C=C(C)C,179 to 181 °C
20,CCOC(=O)N1CCC(=C2c3ccccc3CCn3ncnc32)CC1,106 °C
21,Cc1nc(N2CCN(Cc3ccc(OC(F)(F)F)cc3)C2=O)sc1C(=O)NCCC1CC1,195 to 196 °C
22,NS(=O)(=O)c1cc2c(cc1Cl)C(O)N(C1CCN(Cc3cccc(C(F)(F)F)c3)CC1)C2=O (configuration not stated),204 to 205 °C
23,O=C1c2c(Cl)cccc2-n2cnc(-c3noc(CCl)n3)c2[C@@H]2CCN12,211 to 212 °C

# The remaining lines, values ahead:
row,melting point,Compound
1,237 to 238 °C,O=C(NCc1ccccn1)Nc1cc(-n2c(=O)oc3ccccc32)ccn1
2,205 to 206 °C,COc1cc2c(cc1OC(C)C)-c1c(-c3cccs3)c3c(n1CC2)C(=O)N(C(C)C)CCN(C(=O)OC(C)(C)C)C3
3,98 to 99 °C,CC(C)n1c(CCC2C[C@@H](O)CC(=O)O2)c(-c2ccc(F)cc2)c(-c2ccccc2)c1C(=O)Nc1ccc(F)cc1 (some centres not stated)
4,104 to 108 °C,CCOC(=O)c1c(NC=CC(=O)C(C)C)sc(-c2ccccc2)c1C
5,135 to 137 °C,Cc1c(C(=O)c2ccccc2)c(NC(=O)CI)cn1C
6,118 to 121 °C,CCc1nc2c(cnn2CC)c(NC2CCOCC2)c1CNC(=O)c1cccc(C(=O)NCc2ccc(OC)c(-c3cccc(C=O)c3)c2)c1
7,113 to 114 °C,Cn1c2ccccc2c2sccc(=O)c21
8,124 to 125 °C,Cc1ccccc1-c1cccc(C=CC(=O)O)c1
9,> 305 °C,Cn1c(CNC(=O)c2cc3ccccc3[nH]2)c(-c2ccccc2)c2cc(Cl)ccc2c1=O
10,190 to 191 °C,Cn1ccc(Nc2n[nH]c3ccc(-c4ncccc4Cl)cc23)n1
11,202 °C,CCCn1c(C)nn(-c2ccc(N3CCN(c4ccc(OC)cc4)CC3)cc2)c1=O
12,105 to 108 °C,CCOC(C(=O)O)N1CCN2c3ccccc3Cc3ccccc3C2C1 (configuration not stated)
13,245 °C,CC(C)NC(=O)N1CCc2[nH]cnc2C1c1ccccc1 (configuration not stated)
14,160 to 162 °C,Cc1c(O)ccc2c1OCC1c3ccccc3OC21 (configuration not stated)
15,77 to 89 °C,CN(CCC(Oc1ccc(C(=O)c2ccc3ccccc3c2)cc1)c1ccccc1)CC(=O)O (configuration not stated)
16,205 °C,Cc1ccc(C(=O)C2=C(O)C(=O)N(c3ncc(S(=O)(=O)c4ccc([N+](=O)[O-])cc4)s3)C2c2ccc(C(=O)N(C)C)cc2)cc1 (configuration not stated)
17,129 to 132 °C,CCN(CC)CCn1nc2c3c(cccc31)C(=O)c1c(NCCNCCO)cccc1-2
18,96 to 98 °C,COc1ccc(C(=O)c2ccccn2)cc1
19,78 °C,COc1ccc(C(=O)Nc2ccc3ccc(OC(C)C)nc3n2)cc1
20,188 to 190 °C,COC(=O)Cn1c(=O)c(-c2c(Cl)cccc2Cl)cc2cnc(N)nc21
21,144 to 146 °C,COC(=O)c1nn(Cc2ccc(Cl)c(Cl)c2)c(=O)c2cc(OC)ccc12
22,245 to 247 °C,CC(=O)Nc1nc2c(C)cnc(-c3cccc([N+](=O)[O-])c3)n2n1
23,83.2 to 84.5 °C,O=C(CCCC=CCC1C(O)CC(O)C1C=CC(O)CCc1ccccc1)ON1C(=O)c2ccccc2C1=O (configuration not stated)
24,155 to 156 °C,CCNC(=S)c1ccc2c(c1)Nc1ccccc1S2
25,93 °C,COc1ccc(C(=O)C(NC(=O)CCCCCBr)c2ccc(OC)cc2)cc1 (configuration not stated)
26,284 to 286 °C,CC(=O)Oc1cccc(-c2cc(-c3ccncc3)c(C#N)c(=O)[nH]2)c1

row,melting point,Compound
1,281 to 283 °C,O=C(O)c1ccc2sc3ccccc3c2c1
2,200 to 201 °C,CC(C)Cn1c(=O)n(C)c(=O)c2c(Sc3ccc([N+](=O)[O-])cn3)c(Cc3cccc4ccccc34)sc21
3,116 to 118 °C,CSc1ccc(-c2cc(-n3ccc(C(F)(F)F)n3)c3ccccc3n2)cc1
4,112 to 113 °C,CC(C)c1csc(/C=C/c2cccc(OCCC(C)(C)C(=O)O)c2)n1
5,99 to 101 °C,O=c1c2ccccc2cc2n1CCCCC2
6,155 to 157 °C,C=CCOC(=O)CSc1cccc(NC(=O)NCC(=O)N(CC(=O)OC(C)(C)C)c2ccccc2C(=O)c2ccccc2)c1
7,120 to 122 °C,CC(COc1c(-c2ccccc2)c(=O)oc2c(Cl)cccc12)CN1CCOCC1 (configuration not stated)
8,140 to 141 °C,CC(C)c1nn(-c2ccc(C(F)(F)F)cn2)cc1CCCOc1c(F)cccc1CC(=O)O
9,215 to 217 °C,CC(=O)N1CC(NC(=O)Nc2cccc(C)c2)C(=O)N(CC(=O)c2ccccc2C)c2ccccc21 (configuration not stated)
10,223 to 225 °C,COc1cn(-c2ccc(-c3ncco3)cc2F)nc(-c2ccnn2-c2ccccc2)c1=O
11,173 to 175 °C,CC(C)CC(NC(=O)Cc1ccc(NC(=O)Nc2ccccn2)cc1)c1ncc(C(C)C(=O)O)s1 (configuration not stated)
12,162 °C,C=COC(=O)N1CC2C(=O)C=CC(c3ccccc3)(c3ccccc3)C2C1 (configuration not stated)
13,83 to 85 °C,COc1ccc(OCc2cccc(OCc3ccc4ccccc4n3)c2)cc1
14,215 to 216 °C,CCOCc1nc2c(N)nc3ccccc3c2n1Cc1cc(-c2ccccc2)no1
15,236 to 238 °C,CC(=O)Nc1cccc(S(=O)(=O)N2[C@H](C)CN(CC(=O)Nc3ccccc3C)C[C@@H]2C)c1
16,79 to 81 °C,CCCCOC(=O)c1ccccc1SN(C(=O)NC(=O)c1c(F)cccc1F)c1ccc(C(F)(F)F)cc1
17,122 to 124 °C,CCC(CCCc1cccnc1)NC(=O)C(O)c1ccccc1 (configuration not stated)
18,137 to 138 °C,"CC1=NC(c2ccc(F)cc2F)c2ccccc2CN1C (single isomer, unassigned; (+))"
19,219 to 221 °C,Nc1nc(-c2ccco2)nc2ccccc12
20,166 to 169 °C,CC(C)(C)OC(=O)N1CCC(c2ccc3nc(-c4ccc(S(C)(=O)=O)cc4F)oc3c2)CC1
21,201 to 202 °C,CC(=O)Nc1c(C(=O)c2cc(Cl)ccn2)[nH]c2cc(Cl)ccc12
22,170 to 172 °C,Cc1ccc2c(C(=O)NCCc3ccccc3)c(Cl)ccc2n1
23,302 to 304 °C,Cc1c2c(c(-c3ccc(F)cc3)c3c4c(ccc13)OCO4)C(=O)NC2=O
24,94 to 95 °C,CNC(=O)C(=O)c1ccccc1Oc1ccccc1
25,227 to 229 °C,Cc1ccc(-c2nc3ccc(C(=O)O)cn3c2CN(C)C(=O)CC(C)C)cc1
